Experimental data taken from US20240158384A1, “CB2 RECEPTOR AGONISTS” (The Board of Trustees of the Leland Stanford Junior …, priority 2020, published 2024).
“Also recorded” adds a separate entry of the source. Blank lines part the entries; values can stand above or below the compound they belong to.

How the values were obtained:
human CB2R [1] = molecular target: T1, human CB2R (Homo sapiens, UniProt P34972); experiment: PathHunter β-Arrestin assay, beta-arrestin recruitment; type: cell-based; settings: for Activation of beta-arrestin pathway (in words): hCB2, CP-55940 as control
T1 sequence (P34972 whole entry): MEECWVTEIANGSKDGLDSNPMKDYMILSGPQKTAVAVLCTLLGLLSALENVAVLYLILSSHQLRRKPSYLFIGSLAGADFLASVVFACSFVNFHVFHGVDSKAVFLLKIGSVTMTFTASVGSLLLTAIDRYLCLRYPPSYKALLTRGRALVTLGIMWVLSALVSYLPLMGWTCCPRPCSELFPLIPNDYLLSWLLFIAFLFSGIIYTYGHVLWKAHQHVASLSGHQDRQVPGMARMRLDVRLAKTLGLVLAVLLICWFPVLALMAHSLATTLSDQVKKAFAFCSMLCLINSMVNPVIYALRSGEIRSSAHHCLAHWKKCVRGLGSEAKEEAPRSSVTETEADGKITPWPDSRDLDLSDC
Protocol: The assay was performed using the PathHunter β-Arrestin human CB2 cell line (catalog no. 93-0706C2) and using the PathHunter® β-Arrestin Assay for GPCR Cell Lines (source: DiscoveRx, Fremont, CA, USA), according to the manufacturer's protocol (https://www.discoverx.com/tools-resources/document-resource-library/documents/user-manual-pathhunter-% CE % B2-arrestin-assay-for-gpcr-c). Briefly, cells were seeded at a density of 10,000 cells per well in a 96-well plate and incubated overnight (16-18 h) in a humidified atmosphere at 37° C. and 5% C02. Agonist prepared in PBS was added and the assay plate incubated for 3 h in a humidified atmosphere at 37° C. and 5% C02. Working detection solution was added and the plate was incubated for 1 h in the dark at room temperature. Chemiluminescence was measured on an CLARIOstar plate reader (BMG LABTECH Inc., Cary, NC, USA).

human CB2R [2] = molecular target: T1, human CB2R; experiment: cAMP Hunter eXpress GPCR assay, human CB2: inhibition of forskolin-stimulated cAMP in CHO cells; type: cell-based; design: host or cells: CHO cells
Protocol: Briefly, cAMP Hunter eXpress Cells were seeded 18-24 h prior to the in a 96-well tissue culture treated assay plate and incubated in 5% CO2 at 37° C. in a humidified incubator. After removal of cell media, agonist compound and forskolin prepared in cell assay buffer was added and incubated at 37° C. The CB1 cAMP assay was stimulated with 20 μM final concentration of forskolin with 40 minutes incubation time. The CB2 cAMP assay was stimulated with 25 μM final concentration of forskolin with 35 minutes incubation time. The assay was stopped by incubation with antibody and working solution for 1 h at room temperature. After over 3 h incubation at room temperature in the dark with enzyme acceptor solution, chemiluminescence was measured on a CLARIOstar plate reader (BMG LABTECH Inc., Cary, NC, USA).

Male C57Bl6J mice = experiment: Spontaneous locomotor activity in activity chamber; type: in vivo, mouse; settings: mouse, in vivo, ip
[3] = test system: mice dosed with LPS and ATP; experiment: LPS model of systemic inflammation, Luminex cytokines in plasma and brain homogenate; type: in vivo, mouse; settings: 0.5 mg/kg ip daily for 10 days, LPS 100 ug/kg ip, ATP 50 mg/kg ip
Protocol: Mice were dosed with Compound 24 (0.5 mg/kg ip) or vehicle daily for 10 days. Lipopolysaccharide (LPS) (100 ug/kg ip) was given 1 hour after 10th dose on final day. ATP (50 mg/kg ip) was given 2 hours after LPS and then mice were sacrificed 30 minutes after ATP (2.5 hours after LPS). Multiplex tissue cytokines were analyzed in plasma and brain homogenate from all brain regions dissected above using a Luminex 38-plex mouse cytokine assay as previously described for aged versus young mice (Evans et al. Neurobiol Aging 2021; 106:241-56). The Luminex assay was performed according to the manufacturer's instructions. Briefly, tissue samples were homogenized in RIPA buffer containing proteinase inhibitor by pulling tissue through a 23 g needle (15×) and then sonicating for 3×3 second pulses. Homogenate was spun at 14,000 g for 10 minutes, and protein concentrations were determined by the Pierce BCA assay. Samples were diluted to a common concentration of 6 μg/μL. Plasma samples were diluted 1:3. Plasma and brain homogenate samples were run in duplicate on a 96 well plate alongside standard curve and quality control calibration samples.

[4] = test system: Male C57BL/6J mice brain tissue; experiment: Brain cytokine gene expression (TaqMan qPCR); type: in vivo, mouse; settings: 0.1 and 0.3 mg/kg or 1, 2, and 3 mg/kg
Protocol: Male C57BL/6J mice, 6-8 weeks old were dosed on Day 1,2,3,4,5, and 10, or 11 with vehicle or CBS-159 at 0.1 and 0.3 mg/kg or 1, 2, and 3 mg/kg. Mice were terminated on Day 10 or 11, 3.5 hours after dosing vehicle or CBS-159. Total RNA was isolated from brain tissue dissections using the RNeasy Lipid Tissue Mini Kit (Qiagen) (see Evans et al. Neurobiol. Dis. 2020, 146:105089). One microgram of total RNA was transcribed into cDNA (Superscript III, Invitrogen). PCR was performed in triplicate using TaqMan gene expression master mix (Applied Bio-systems) and validated TaqMan gene expression assays, Tnfa (Mm00443258_m1), IL1β (Mm00434228_m1), IL6 (Mm00446190_m1),), IL18 (Mm00434226_m1), and glyceraldehyde-3-phosphate dehydrogenase (Gapdh; Mm99999915_g1). Amplification was performed using a StepOnePlus system (Applied Biosystems). Fold changes of expression relative to control were determined after normalization to Gapdh. Relative quantification and old change were calculated by the comparative CT method (Schmittgen and Livak, Nat. Protoc. 2008, 3(6):1101-1108).

Heroin SA-trained rats = experiment: Heroin self-administration model; type: in vivo, rat; settings: treated daily during 21 days of abstinence, 3 mg/kg i.p., vs vehicle
Protocol: In the heroin SA model, rats were surgically implanted with a catheter that connects to their heart. […] They learned to press an active lever to get an infusion of heroin through their implanted tube. […] Heroin SA-trained rats underwent 21 days of abstinence after training. […] Heroin-seeking behaviors were assessed before and after the abstinence period.

heroin-addicted mice = experiment: Naloxone-precipitated withdrawal model; type: in vivo, mouse; settings: 3 mg/kg i.p., jumping 1 minute after naloxone 50 mg/kg
Protocol: The naloxone-precipitated withdrawal model uses an opioid receptor antagonist, naloxone, to trigger highly aversive withdrawal symptoms (e.g., jumping, burrowing, “wet-dog” shakes, hyperreactivity) in heroin-addicted mice. Signs such as jumping can be quantified after administration of naloxone (“naloxone precipitated withdrawal”). […] On Day 7, 60 minutes after a final drug and heroin dose (40 mg/kg), naloxone was administered (50 mg/kg), and jump count measured for 1-15 minutes.

[5] = cAMP assay, CP-55940 as full agonist control

melting point: 231 to 235 °C
Structure (SMILES): CN1CCN(c2nccc3c2nc(-c2ccccc2Cl)n3C2CCOCC2)CC1 [Compound 1, 2-(2-chlorophenyl)-4-(4-methylpiperazin-1-yl)-1-(tetrahydro-2H-pyran-4-yl)-1H-imidazo[4,5-c]pyridine]

Activation of beta-arrestin pathway (in words) (human CB2R [1]): almost no beta-arrestin activity | CB2 agonist character (in words) (human CB2R [2]; [5]): partial agonist of CB2 | Selectivity for CB2 over CB1 (in words) (human CB2R [2]; cAMP assays hCB1 vs hCB2): selective for CB2 over CB1
Structure (SMILES): O=C(Nc1cc(C2CC2)no1)N1CCCN1c1ccc(C(F)(F)F)cc1 [Compound 16, N-(3-cyclopropylisoxazol-5-yl)-2-(4-(trifluoromethyl)phenyl)pyrazolidine-1-carboxamide]

Activation of beta-arrestin pathway (in words) (human CB2R [1]): weak beta-arrestin activity | CB2 agonist character (in words) (human CB2R [2]; [5]): potent agonists of CB2 | Selectivity for CB2 over CB1 (in words) (human CB2R [2]; cAMP assays hCB1 vs hCB2): selective for CB2 over CB1
Structure (SMILES): CC(C)(CO)c1cc(NC(=O)N2CCCN2c2ccc(C(F)(F)F)cn2)on1 [Compound 24, N-(3-(1-hydroxy-2-methylpropan-2-yl)isoxazol-5-yl)-2-(5-(trifluoromethyl)pyridin-2-yl)pyrazolidine-1-carboxamide]
Distance moved / spontaneous locomotor activity (Male C57Bl6J mice): does not affect spontaneous locomotor activity in mice | Anti-inflammatory function in LPS model of systemic inflammation [3]: has anti-inflammatory activity; also recorded: displays anti-inflammatory function in a LPS model of systemic inflammation | Anti-inflammatory function in the brain [4]: displays anti-inflammatory function in the brain

melting point: 175 to 179 °C
Structure (SMILES): CC(C)(C)c1cc(NC(=O)N2CCCC2c2ccc(C(F)(F)F)cc2)no1 (stereo not drawn) [Compound 26, N-(5-(tert-butyl)isoxazol-3-yl)-2-(4-(trifluoromethyl)phenyl)pyrrolidine-1-carboxamide]

More lines, now with the values behind:

Structure (SMILES): Cc1cc2c(nc(-c3ccccc3Cl)n2C2CCOCC2)c(N2CCN(C)CC2)n1 [Compound 2, 2-(2-chlorophenyl)-6-methyl-4-(4-methylpiperazin-1-yl)-1-(tetrahydro-2H-pyran-4-yl)-1H-imidazo[4,5-c]pyridine]
melting point: 248 to 252 °C

Structure (SMILES): CC(C)(C)c1cc(NC(=O)N2CCCN2c2ccc(C(F)(F)F)cn2)on1 [Compound 3, N-(3-(tert-butyl)isoxazol-5-yl)-2-(5-(trifluoromethyl)pyridin-2-yl)pyrazolidine-1-carboxamide]
melting point: 184 to 188 °C

Structure (SMILES): CC(C)(C)c1cc(NC(=O)N2CCCN2c2ccc(C(F)(F)F)cc2)on1 [Compound 11, N-(3-(tert-butyl)isoxazol-5-yl)-2-(4-(trifluoromethyl)phenyl)pyrazolidine-1-carboxamide]
EC50 (human CB2R [1]): > 1000 nM | Activation of beta-arrestin pathway (in words) (human CB2R [1]): weakly/partially activates the beta-arrestin pathway | Emax (human CB2R [1]; read-out: B-arrestin Maximum Activation): 35.5% | melting point: 211 to 215 °C | Emax (human CB2R [2]; CHO, read-out: CB2 Maximum Activation): 114% | EC50 (human CB2R [2]; Table 3; cAMP assay, 25 μM forskolin, 35 minutes; read-out: CB2 EC50): 75.2 nM | CB2 agonist character (in words) (human CB2R [2]; [5]): full agonist | Selectivity for CB2 over CB1 (in words) (human CB2R [2]; cAMP assays hCB1 vs hCB2): selective for CB2 over CB1

Structure (SMILES): CC(C)(C)c1cc(NC(=O)N2CCCN2c2cc(F)cc(F)c2)on1 [Compound 19, N-(3-(tert-butyl)isoxazol-5-yl)-2-(3,5-difluorophenyl)pyrazolidine-1-carboxamide]
melting point: 181 to 185 °C

Structure (SMILES): CC(C)(C)c1cc(NC(=O)N2CCCN2c2ccc(F)cc2)on1 [Compound 21, N-(3-(tert-butyl)isoxazol-5-yl)-2-(4-fluorophenyl)pyrazolidine-1-carboxamide]
melting point: 190 to 194 °C

Structure (SMILES): CC(C)(C)c1cc(NC(=O)N2CCC(=O)N2c2ccc(C(F)(F)F)cc2)on1 [Compound 29, N-(3-(tert-butyl)isoxazol-5-yl)-3-oxo-2-(4-(trifluoromethyl)phenyl)pyrazolidine-1-carboxamide]
melting point: 186 to 190 °C

Structure (SMILES): CC(C)(C)c1cc(NC(=O)N2CCCN2)on1 [Compound 31, N-(3-(tert-butyl)isoxazol-5-yl)pyrazolidine-1-carboxamide]
melting point: 175 to 179 °C

Structure (SMILES): Cc1nc(N2CCN(C)CC2)c2nc(-c3ccccc3Cl)n(C3CCOCC3)c2n1 [LY2828360, reference compound]
Activation of beta-arrestin pathway (in words) (human CB2R [1]): weakly/partially activates the beta-arrestin pathway | Emax (human CB2R [1]; read-out: CB2 Maximum Activation): 51.7% | Abstinence-induced heroin seeking (Heroin SA-trained rats): less abstinence-induced heroin seeking than the vehicle-treated rats | Negative effects of heroin withdrawal (jumping behavior after naloxone) (heroin-addicted mice): reduce the negative effects of heroin withdrawal | Emax (human CB2R [2]; CHO; read-out: CB2 Maximum Activation): 52.6%
